Measurements as given in US20210302459A1, “Biosensor Storage Methods” (Queen's University at Kingston, priority 2020, published 2021).

What was measured:
Format in all cases: binding
[1] = biological target: T1, TLR2/6 biosensor (TLR2 and TLR6 proteins immobilized on gold electrode) (Mus musculus, UniProt Q9EPW9+Q9QUN7); assay: Electrochemical impedance response (ΔRct %) of freshly prepared TLR2/6 biosensors to isolated PAMPs
T1 construct: Fc (fusion partner, Fc chimera); purchased R&D Systems Inc. 1530-TR-050 (TLR2); 1533-TR-050 (TLR6)
Experimental: As shown in FIGS. 1A-B, a TLR2/6 biosensor was prepared following the steps as shown. Specifically, TLR biosensors were prepared using DropSens gold screen printed electrode (SPE). 1-lipoic acid n-hydroxysuccinimide ester (LPA, a linker molecule) was synthesized following a published protocol (see Howarth, M., et al., Nat. Methods, 2008, 5, 397-399). LPA solution at a concentration of 2 mM was prepared using ethanol/MQ water (volume ratio of 1:1). A clean plastic petri dish was lined with a filter paper which was dampened with a 1:1 solution of ethanol and MQ. The DropSens SPE was placed on the filter paper and 50 μL of the 2 mM LPA solution was dropped onto the working electrode. The petri dish was sealed with parafilm and placed in a fridge at 277 K for 24 hours. An additional 50 μL of the 2 mM LPA solution was cast onto a working electrode and returned to the fridge for another 24 hours. After a total of 48 hours the SPE was rinsed thoroughly with ethanol and MQ water before blown dry with nitrogen. TLR2 and TLR6 proteins were individually reconstituted into solutions at a concentration of 200 μg/mL using PBS buffer (pH ˜7.4). The TLR2/6 protein mixture was prepared by mixing 100 μL of TLR2 and 100 μL of TLR6 and mixing on a vortex machine for 30 seconds in a 1.5 mL microcentrifuge tube. The SPEs were placed in petri dishes with filter papers dampened with PBS buffer (pH ˜7.4). A small drop of TLR 2/6 mixture (5 μL) was dispensed onto each working electrode and then the petri dishes were sealed with PARAFILM™ and left in the fridge at 277 K for 72 hours. The electrodes were rinsed with MQ water after the immersion and blown dry with nitrogen. An ethanolamine-tris buffer solution was prepared by dissolving 1.2 g of ethanolamine, 0.121 g tris base in 20 mL of MQ water. The pH of the solution was adjusted to 8.4 using concentrated hydrochloric acid. After the step of immobilizing TLR2/6 proteins, electrode surfaces were immersed in ethanolamine solutions for 1 hour to deactivate unreacted ester groups on the LPA monolayer.
All electrochemical measurements were preformed in faraday cages using DRP-CAC adapters for SPEs being measured. Cyclic voltammetry (CV), square wave voltammetry (SWV), and electrochemical impedance spectroscopy (EIS) measurements were completed using CHI6055E potentiostats (CH Instruments of Austin, Tex., USA). […] The experimental EIS curves were evaluated to determine the film resistance using ZSimpWin 2.0 software (available from AMETEK® Scientific Instruments of Berwyn, Pa., USA). […]
(§1) Sensor responses to different concentrations of Pam2CSK4, a gram-positive PAMP, were evaluated. […] Reduction in measured current correlated to the binding of Pam2CSK4 onto the TLR2/6 biosensor. […]

[2] = biological target: T1, TLR2/6 biosensor (TLR2 and TLR6 proteins immobilized on gold electrode); assay: Cyclic voltammetry peak current of TLR2/6 biosensors after exposure to analyte; conditions: concentration increased 0.1 to 50.0 μM; reduced from 147 μA
Experimental: As shown in FIGS. 1A-B, a TLR2/6 biosensor was prepared following the steps as shown. Specifically, TLR biosensors were prepared using DropSens gold screen printed electrode (SPE). 1-lipoic acid n-hydroxysuccinimide ester (LPA, a linker molecule) was synthesized following a published protocol (see Howarth, M., et al., Nat. Methods, 2008, 5, 397-399). LPA solution at a concentration of 2 mM was prepared using ethanol/MQ water (volume ratio of 1:1). A clean plastic petri dish was lined with a filter paper which was dampened with a 1:1 solution of ethanol and MQ. The DropSens SPE was placed on the filter paper and 50 μL of the 2 mM LPA solution was dropped onto the working electrode. The petri dish was sealed with parafilm and placed in a fridge at 277 K for 24 hours. An additional 50 μL of the 2 mM LPA solution was cast onto a working electrode and returned to the fridge for another 24 hours. […]
All electrochemical measurements were preformed in faraday cages using DRP-CAC adapters for SPEs being measured. […] The experimental EIS curves were evaluated to determine the film resistance using ZSimpWin 2.0 software (available from AMETEK® Scientific Instruments of Berwyn, Pa., USA). […]
as §1

[3] = biological target: T1, TLR2/6 biosensor (TLR2 and TLR6 proteins immobilized on gold electrode); assay: Response of TLR2/6 biosensors to Pam2CSK4 after 2 weeks storage under different conditions; conditions: for detection response / activity in comparison to control: 50 μM Pam2CSK4; for activity in comparison to control: −33° C.
Experimental: Referring to FIGS. 2A-C, plots are shown that provide detection responses obtained from TLR2/6 biosensors in the presence of Pam2CSK4 with no storage, and with storage under different conditions for 2 weeks (see Example 5 for details). Columns labelled ‘A’ in FIGS. 2A-C correspond to detection responses of fresh (i.e., not stored) TLR2/6 biosensors to different concentrations of Pam2CSK4. Responses of TLR2/TLR6 biosensors stored in PBS buffer at −80° C. (see columns labelled ‘E’ in FIGS. 2A-2C) for two weeks to Pam2CSK4 were equivalent to the responses from freshly prepared biosensors. That is, there was no significant loss of performance under storage condition E (see Table 1).
Biosensors as described herein (e.g., TLR2/6 proteins immobilized onto conductive surfaces) were stored under varying conditions (see Table 1) for two weeks and then challenged by the PAMP (Pam2CSK4). As shown in FIGS. 2A-2C, a comparison was done of the responses from freshly prepared and stored biosensors were compared. Calibration curves including more concentration points are shown in FIGS. 6A-6D, where ΔRCT(%) is a normalized detection signal. ΔRCT(%)=[RCT (after exp.)−RCT (before exp.)]/RCT (before exp.), where “before exp.” refers to before exposure to analyte, and “after exp.” refers to after exposure to the analyte.
Three storage temperatures were selected, 4° C., −33° C., and −80° C. Ionic salt solutions are commonly used to maintain protein folding and stability, thus, to preserve the biosensor during storage, varying buffer solutions were used.
Batch B biosensors were stored in PBS buffer of pH˜7.4 at 4° C.
The storage conditions for Batch C was −33° C. in 50% v/v PBS buffer at pH ˜7.4 and glycerol. The storage conditions for Batch D was −33° C. in 50% v/v Tris buffer pH ˜7.7 and glycerol. […] However, the activity was reduced down to 30% in comparison to control.
The storage conditions for Batch E was −80° C. in PBS buffer at pH ˜7.4.
Batch F biosensors were stored at −80° C. in the absence of any buffer solution.
Batch G biosensors were disposed in a buffer solution that included amino acids. Specifically, Batch G buffer solution included 50 mM L-Arg, 50 mM L-Glu, 1 M NaCl and 200 mM imidazole in 50 mM Tris-HCl (pH˜8.0). The solution surrounded each biosensor in Batch G and they were kept at 4° C.
Different concentrations of Pam2CSK4 were used to trigger the responses. These concentrations were 0.1 μM for FIG. 2A; 1.0 μM for FIG. 2B; and 50 μM for FIG. 2C.

T1 sequence (Q9QUN7 with tags, fused parts or gaps limits assumed): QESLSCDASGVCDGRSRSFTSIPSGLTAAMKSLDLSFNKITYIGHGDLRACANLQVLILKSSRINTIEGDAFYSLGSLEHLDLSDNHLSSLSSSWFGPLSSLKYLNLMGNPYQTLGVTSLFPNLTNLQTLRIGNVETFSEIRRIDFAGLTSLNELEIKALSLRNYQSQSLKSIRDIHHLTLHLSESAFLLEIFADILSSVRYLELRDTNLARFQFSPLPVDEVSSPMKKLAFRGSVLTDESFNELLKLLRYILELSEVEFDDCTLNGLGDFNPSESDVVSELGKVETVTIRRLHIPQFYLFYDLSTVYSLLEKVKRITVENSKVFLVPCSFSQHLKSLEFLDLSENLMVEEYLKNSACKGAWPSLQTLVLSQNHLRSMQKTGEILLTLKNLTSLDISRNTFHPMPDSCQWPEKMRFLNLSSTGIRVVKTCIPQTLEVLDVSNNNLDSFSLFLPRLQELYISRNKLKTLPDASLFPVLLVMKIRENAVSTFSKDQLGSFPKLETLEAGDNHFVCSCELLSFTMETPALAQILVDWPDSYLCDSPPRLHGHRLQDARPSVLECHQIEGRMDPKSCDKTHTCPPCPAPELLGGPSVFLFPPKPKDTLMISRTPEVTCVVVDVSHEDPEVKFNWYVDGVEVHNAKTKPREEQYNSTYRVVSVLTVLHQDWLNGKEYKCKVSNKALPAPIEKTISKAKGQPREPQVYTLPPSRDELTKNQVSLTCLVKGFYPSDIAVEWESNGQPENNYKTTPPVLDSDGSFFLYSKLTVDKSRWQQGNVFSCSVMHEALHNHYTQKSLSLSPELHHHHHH
T1 sequence (Q9EPW9 with tags, fused parts or gaps limits assumed): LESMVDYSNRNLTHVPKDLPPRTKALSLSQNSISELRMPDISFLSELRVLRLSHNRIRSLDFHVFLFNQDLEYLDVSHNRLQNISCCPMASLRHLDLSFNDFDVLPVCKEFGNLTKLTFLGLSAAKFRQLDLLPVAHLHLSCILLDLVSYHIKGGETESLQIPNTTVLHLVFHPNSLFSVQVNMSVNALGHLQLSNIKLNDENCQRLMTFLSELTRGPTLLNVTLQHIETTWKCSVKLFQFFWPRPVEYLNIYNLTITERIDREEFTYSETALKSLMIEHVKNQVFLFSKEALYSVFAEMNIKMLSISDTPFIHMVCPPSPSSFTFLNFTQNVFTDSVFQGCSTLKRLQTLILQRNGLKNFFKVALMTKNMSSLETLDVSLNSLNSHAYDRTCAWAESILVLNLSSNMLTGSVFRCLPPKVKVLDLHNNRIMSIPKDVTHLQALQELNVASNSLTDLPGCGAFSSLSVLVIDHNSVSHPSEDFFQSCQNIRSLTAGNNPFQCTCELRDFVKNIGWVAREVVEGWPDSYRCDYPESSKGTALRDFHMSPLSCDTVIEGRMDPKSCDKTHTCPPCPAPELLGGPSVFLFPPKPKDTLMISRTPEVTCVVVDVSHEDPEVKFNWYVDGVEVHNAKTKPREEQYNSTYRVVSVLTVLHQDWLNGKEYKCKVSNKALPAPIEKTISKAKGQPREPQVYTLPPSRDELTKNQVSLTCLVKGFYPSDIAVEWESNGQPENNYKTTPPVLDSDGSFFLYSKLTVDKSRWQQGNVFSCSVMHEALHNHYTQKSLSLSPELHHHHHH

In the case of Pam2CSK4, the “electrochemical response (ΔRct %)” value ([1]; 0.1 μM analyte, fresh biosensors, 4 replicates) is reported as 24±12%, the “electrochemical response (ΔRct %)” value ([1]; 1 μM analyte, fresh biosensors, 4 replicates) is reported as 58±13% and the “electrochemical response (ΔRct %)” value ([1]; largest concentration, FIG. 4 comparison) is reported as roughly 160%. For the same substance, the “peak current (cyclic voltammogram) after exposure” value [2] was 96 μA, the detection response ([3]; freshly prepared biosensors (column A, no storage)) was 167±29% and the detection response ([3]; storage condition G: 2 weeks, 4° C., amino acid buffer pH ~8.0) was 360±24%. The response after storage ([3]; Batch B: 2 weeks, PBS buffer pH ~7.4, 4° C.) was “no significant responses”, the “activity in comparison to control” value ([3]; Batch C: 2 weeks, 50% v/v PBS/glycerol) was 30% and the “activity in comparison to control” value ([3]; Batch D: 2 weeks, 50% v/v Tris/glycerol) was 30%. For the same substance, the “response after storage versus control biosensor” value ([3]; Batch E: 2 weeks, −80° C., PBS buffer pH ~7.4, all concentrations) was “within error of the control biosensor” and the response after storage ([3]; Batch F: 2 weeks, −80° C., no buffer solution) was “lost most of their response”.

With lipopolysaccharide [Salmonella LPS] the “electrochemical response (ΔRct %)” value ([1]; LPS from 0.1 to 63.6 μg/ml, any concentration) was no more than 40%.
